Measurements reported in patent US20030077298A1, “Activators and ligands of PPAR-beta/delta for the treatment of skin conditions” (The Regents of the University of California, a California …, priority 2001, published 2003).
Read-outs that look alike come from different tables or passages of the source.

Key:
ears of CD-1 mice = assay: TPA-induced irritant contact dermatitis, ear thickness; assay type: in vivo, mouse; conditions: for effect on TPA induced increase in ear thickness: GW1514 4 mM in acetone, topical, 45 minutes and 4 hours after TPA, FIG. 9
Experimental: TPA was applied to the inner and outer surface of the left ears of male mice. The right ears were treated with vehicle alone (acetone). […] Ear thickness was measured with a digital caliper (Mitutoyo Corp., Tokyo, Japan).

[1] = system: hyperplastic epidermis of hairless mice; assay: Experimentally induced epidermal hyperplasia: filaggrin/loricrin and PCNA staining; assay type: in vivo, mouse; conditions: 4 mM in acetone topically for three days after induction of hyperplasia
Experimental: The skin of 6-8 week old hairless mice (Simonsen Laboratories, Gilroy, Calif.) was treated twice a day for 3 days with acetone soaked cotton balls until the transepidermal water loss reached 6-8 mg/cm^2/h. […] At the completion of the experimental treatments, the animals were sacrificed and skin samples were taken and fixed with 4% formaldehyde in phosphate-buffered saline (PBS) and embedded in paraffin. Sections (6 μm) were collected on microscope slides and used for immunohistochemistry. Photographs were taken with a Zeiss microscope and digital images were captured and assembled by appropriate software. Fillagrin and loricrin protein expression were detected by immunohistochemistry using antibodies purchased from BabCo (Richmond, Calif.). Proliferating keratinocytes were quantified in sections by staining with biotinylated anti-proliferating cell nuclear antigen (PCNA) antibody (CalTag Laboratories, Burlingame, Calif.).

[2] = system: cultured human keratinocytes; assay: Keratinocyte differentiation in vitro, involucrin protein by Western blot; assay type: cell-based; conditions: 8 μM
Experimental: (§1) Second-passage keratinocytes isolated from newborn foreskins were cultured in serum-free keratinocyte growth medium (KGM; Clonetics, San Diego, Calif., USA). […] Poly-A mRNA was isolated and transglutaminase I, involucrin and PPAR-beta/delta mRNA levels were measured by Northern blot analysis (FIG. 1).
Total cellular protein was isolated from cultured keratinocytes and involucrin protein levels were assessed by Western blot analysis. The cells were homogenized by sonication, their protein content was determined, and gels were loaded with equal amounts per sample and lane. Western Immunoblotting was performed using 7.5% SDS-PAGE, as described previously (Laemmli, 1970). Following transfer of protein to PVDF membranes, blots were incubated overnight with primary antibody at 4° C. Secondary antibody (peroxidase conjugated anti mouse; Amersham PharmaciaBiotech Inc., Piscataway, N.J.) was applied and blots were incubated at room temperature for 2 hours. Final detection was performed by chemiluminescence (ECL kit; Amersham). Involucrin protein was detected with a monoclonal mouse anti-human involucrin antibody.

[3] = system: epidermal permeability barrier of hairless mice; assay: Permeability barrier recovery (TEWL) after barrier disruption; assay type: in vivo, mouse; conditions: for percent barrier recovery: pretreated 4 mM twice daily for three days
Experimental: Permeability of the epidermal barrier was then experimentally disrupted by the repeated application of cellophane tape, solvent extraction (repeated topical acetone), or by detergent treatment (repeated topical sodium dodecyl sulfate) until the transepidermal water loss (TEWL) reached 6-8 mg/cm^2/h. Recovery of barrier function was determined by measurement of transepidermal water loss (TEWL) with an electrolytic water analyzer (MEECO®, Warrington, Pa.) at 3 and 6 hours after barrier disruption.
Barrier recovery is reported as percent barrier recovery from the initial induced defect.

PPAR-alpha [4] = target: T1, PPAR-alpha (Homo sapiens, UniProt Q07869); assay: PPAR subtype activation (statement in description); conditions: "it has now been discovered"; no method given
T1 sequence (Q07869 1-468): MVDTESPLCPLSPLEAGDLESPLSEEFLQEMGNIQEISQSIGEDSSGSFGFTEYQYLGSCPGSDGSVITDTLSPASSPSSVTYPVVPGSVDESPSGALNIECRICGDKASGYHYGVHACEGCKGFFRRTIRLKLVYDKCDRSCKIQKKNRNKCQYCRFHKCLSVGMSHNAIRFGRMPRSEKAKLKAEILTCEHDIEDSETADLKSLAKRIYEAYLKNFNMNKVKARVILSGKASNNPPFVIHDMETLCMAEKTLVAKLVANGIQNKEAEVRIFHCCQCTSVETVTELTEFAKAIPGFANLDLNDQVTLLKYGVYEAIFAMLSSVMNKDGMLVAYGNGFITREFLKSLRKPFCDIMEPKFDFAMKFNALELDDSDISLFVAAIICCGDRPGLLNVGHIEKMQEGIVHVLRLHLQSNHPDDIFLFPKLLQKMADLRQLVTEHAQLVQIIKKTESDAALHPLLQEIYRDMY

[5] = system: epidermis of PPARα−/− and PPARα+/+ mice; assay: Topical treatment of PPAR-alpha knockout and wild type mice: filaggrin/loricrin immunohistochemistry; assay type: in vivo, mouse; conditions: 4 mM topical twice a day for 6 days
Experimental: The epidermis of PPARα knockout (PPARα−/−) mice, as well as the epidermis of wild type(PPARα+/+) mice was treated with topical applications of GW1514. Expression of the in vivo differentiation markers loricrin and filaggrin was measured by immunohistochemical staining following treatment.
PPAR-alpha−/−mice in a mixed C57BL/6 and Sv129 background were compared with age matched C57BL/6 and Sv129 wild type controls. […] At the conclusion of the experiment, animals were sacrificed. Skin samples were taken and fixed with 4% formaldehyde in phosphate-buffered saline (PBS) and embedded in paraffin. Sections (6 μm) were collected on microscope slides and used for immunohistochemistry. Photographs were taken with a Zeiss microscope and digital images were captured and assembled by appropriate software. Fillagrin and loricrin protein expression were detected by immunohistochemistry using antibodies purchased from BabCo (Richmond, Calif.).

[6] = system: cultured human keratinocytes; assay: Keratinocyte differentiation in vitro, mRNA levels by Northern blot; assay type: cell-based
Experimental: Therefore, to determine if GW1514 could stimulate keratinocyte differentiation, in vitro changes in the levels involucrin and transglutaminase I mRNA, and involucrin protein expression were determined when cells were cultured in the presence of GW1514. In addition, levels of PPAR-betaldelta mRNA were compared in cells treated with GW1514 versus untreated controls.
as §1
(§2) PolyA RNA was purified using oligo(dT) cellulose (Amersham Pharmacia). RNA was electrophoresed through 1% agarose gels containing 2.2 M formaldehyde, and RNA integrity was visualized by ethidium bromide staining. The RNA was then transferred to a nylon membrane and blots were hybridized overnight at 65° C. with the appropriate ^32P-labeled cDNA probes. Probes were ^32P-labeled by random priming. Washes were performed in 0.1% SSC and 0.1 SDS for 20 minutes at room temperature and at 65° C., respectively. Autoradiography was performed at −70° C. Blots were probed with GAPDH to control for normal loading. Bands of the correct size were quantified by densitometry using QuantityOne software (Bio-Rad Laboratories Inc., Hercules, Calif., USA).

[7] = system: normal epidermis of hairless mice; assay: Topical treatment of normal epidermis: filaggrin/loricrin immunohistochemistry and PCNA staining; assay type: in vivo, mouse
Text: At the conclusion of the experiment the animals were sacrificed. Mouse skin samples were fixed with 4% formaldehyde in phosphate-buffered saline (PBS) and embedded in paraffin. Sections (6 μm) were collected on microscope slides and used for immunohistochemistry. Photographs were taken with a Zeiss microscope and digital images were captured and assembled by appropriate software. Fillagrin and loricrin protein expression were detected by immunohistochemistry using antibodies purchased from BabCo (Richmond, Calif.). Proliferating keratinocytes were quantified in sections by staining with biotinylated anti-proliferating cell nuclear antigen (PCNA) antibody (CalTag Laboratories, Burlingame, Calif.).

PPAR-alpha [8] = target: T1, PPAR-alpha; conditions: known cross-reactive PPAR agonists; cited from earlier work
[9] = system: cultured human keratinocytes; assay: PPAR-beta/delta mRNA in keratinocytes treated with inflammatory stimuli (Northern blot); assay type: cell-based; conditions: LPS; IL1-beta 50 ng/ml; TNF-alpha 100 ng/ml; UV-B 30 mJ/cm^2
Experimental: Second-passage keratinocytes isolated from newborn foreskins were cultured in serum-free keratinocyte growth medium (KGM; Clonetics, San Diego, Calif., USA). […] Control keratinocytes were treated with vehicle (0.05%) ethanol, or sham irradiated. UV exposure was performed in phosphate buffered saline which was replaced by serum free KGM after irradiation. For cytokine treatment, 0.1% bovine serum albumin was added to the medium.
as §2, with “Quantityone” for “QuantityOne”, “Laboratories,” for “Laboratories”

[10] = 8 μM vs vehicle (0.05% ethanol), Northern blot
[11] = 4 mM in acetone, topical, twice a day for 6 days, vs vehicle

In the case of `Cc1cc(SCc2oc(-c3ccc(C(F)(F)F)cc3)nc2C)ccc1OCC(=O)O` [GW1514, (2-methyl-4-(((4-methyl-2-(4-trifluoromethylphenyl)-1,3-oxazol-5-yl)methyl)sulfanyl)phenoxy)acetic acid], the “effect on TPA induced increase in ear thickness” value (ears of CD-1 mice) is reported as “reduced the magnitude”, the “expression of differentiation marker filaggrin” value [1] is reported as “increase” and the “expression of differentiation marker loricrin” value [1] is reported as “increase”. The “number of proliferating nuclei as measured by PCNA staining” value [1] was “did not produce an increase”, the “increase in involucrin protein expression” value [2] was 5 fold and the “recovery of permeability barrier function” value ([3]; regardless of the method of barrier perturbation (tape, acetone, detergent)) was “accelerated recovery”. The percent barrier recovery ([3]; three hour post tape-strip) was ~50%, the percent barrier recovery ([3]; three hours after repeated topical acetone) was “about 30%” and the “activation of PPAR-alpha” value (PPAR-alpha [4]) was “not also activators of PPAR-alpha”. The filaggrin immunohistochemical staining ([5]; PPAR-alpha knockout (−/−) mice) was “increased immunohistochemical staining”, the loricrin immunohistochemical staining ([5]; PPAR-alpha knockout (−/−) mice) was “increased immunohistochemical staining” and the filaggrin immunohistochemical staining ([5]; wild type (+/+) mice) was “increased immunohistochemical staining”. The loricrin immunohistochemical staining ([5]; wild type (+/+) mice) was “increased immunohistochemical staining”, the “PPAR-beta/delta mRNA levels” value [6, 10] was “increased levels” and the “involucrin mRNA levels” value [6, 10] was “increased levels”. For the same compound, the “transglutaminase I mRNA levels” value [6, 10] was “increased levels”, the “induction of differentiation markers compared with high calcium concentrations in culture medium” value ([6]; 8 μM, FIG. 1) was “more pronounced” and the filaggrin immunohistochemical staining [7, 11] was “increased levels of immunohistochemical staining”. The loricrin immunohistochemical staining [7, 11] was “increased levels of immunohistochemical staining”, the “cell proliferation (PCNA)” value ([7]; after six days treatment) was “at normal levels” and the “expression of in vivo differentiation markers” value ([7]; after three days of treatment) was “increased expression”. For the same compound, the “pool of proliferating cells (PCNA)” value ([7]; three days after treatment) was “transiently increased”.
For `CCCCCCCCCCCCCC(=O)O[C@@H]1[C@@H](C)[C@@]2(O)[C@@H](C=C(CO)C[C@]3(O)C(=O)C(C)=C[C@@H]23)[C@@H]2C(C)(C)[C@]12OC(C)=O` [TPA, 12-O-tetradecanoylphorbol-13-acetate], the “increase in ear thickness following TPA treatment” value (ears of CD-1 mice; 10 μl of 0.03% TPA in acetone, single topical application) was “approximately 2 fold” and the “increase in ear weight following TPA treatment” value (ears of CD-1 mice; 10 μl of 0.03% TPA in acetone, single topical application, not shown) was “approximately 2 fold”.
In the case of `Cc1cccc(Nc2cc(Cl)nc(SCC(=O)O)n2)c1C` [WY 14643], the “activation of PPAR-alpha” value (PPAR-alpha [8]) is given as “activates”.
In the case of `C[C@H]1C[C@H]2[C@@H]3CCC4=CC(=O)C=C[C@]4(C)[C@@]3(F)[C@@H](O)C[C@]2(C)[C@@]1(O)C(=O)CCl` [clobetasol], the “effect on TPA induced increase in ear thickness” value (ears of CD-1 mice) is reported as “anti-inflammatory effect”.
With “IL1-β: cytokine used as inflammatory stimulus on cultured keratinocytes” the “PPAR-beta/delta mRNA levels relative to untreated control” value [9] was “nearly twice”.
For lipopolysaccharide [reference compound], the “PPAR-beta/delta mRNA levels relative to untreated control” value [9] was “nearly twice”.
